Measured values from PubChem BioAssay (NCI).
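In this assay, cells in 96-well plates receive the compound at five concentrations for 48 hours. Endpoints are linearly interpolated between the surrounding concentrations. At the GI50, growth is halved. The concentration for full growth arrest is given as TGI.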

Experiments:
Assay in all cases: inhibition of tumour cell growth, NCI panel, 48 h
IGROV1 ovarian = test system: IGROV1 ovarian
MCF7 breast = test system: MCF7 breast
SNB-19 CNS = test system: SNB-19 CNS
MOLT-4 leukemia = test system: MOLT-4 leukemia
MDA-MB-435 = test system: MDA-MB-435
NCI-H23 lung = test system: NCI-H23 lung
SF-268 CNS = test system: SF-268 CNS
HCC-2998 colon = test system: HCC-2998 colon
SK-OV-3 ovarian = test system: SK-OV-3 ovarian
HCT-15 colon = test system: HCT-15 colon
786-0 renal = test system: 786-0 renal
A498 renal = test system: A498 renal
EKVX NSCLC = test system: EKVX NSCLC
PC-3 prostate = test system: PC-3 prostate
HL-60(TB) leukemia = test system: HL-60(TB) leukemia
T-47D breast = test system: T-47D breast
ACHN renal = test system: ACHN renal
SK-MEL-5 melanoma = test system: SK-MEL-5 melanoma
TK-10 renal = test system: TK-10 renal
CCRF-CEM leukemia = test system: CCRF-CEM leukemia
HS 578T breast = test system: HS 578T breast
MALME-3M melanoma = test system: MALME-3M melanoma
NCI/ADR-RES ovarian = test system: NCI/ADR-RES ovarian
KM12 colon = test system: KM12 colon
U251 CNS = test system: U251 CNS
OVCAR-3 ovarian = test system: OVCAR-3 ovarian
SN12C renal = test system: SN12C renal
COLO 205 colon = test system: COLO 205 colon
OVCAR-8 ovarian = test system: OVCAR-8 ovarian
DU-145 prostate = test system: DU-145 prostate
HOP-62 NSCLC = test system: HOP-62 NSCLC
UO-31 renal = test system: UO-31 renal
SF-295 CNS = test system: SF-295 CNS
OVCAR-4 ovarian = test system: OVCAR-4 ovarian
M14 melanoma = test system: M14 melanoma
SK-MEL-28 melanoma = test system: SK-MEL-28 melanoma
BT-549 breast = test system: BT-549 breast
HT29 colon = test system: HT29 colon
UACC-257 melanoma = test system: UACC-257 melanoma
SR leukemia = test system: SR leukemia
UACC-62 melanoma = test system: UACC-62 melanoma
NCI-H460 lung = test system: NCI-H460 lung
SNB-75 CNS = test system: SNB-75 CNS
RXF 393 renal = test system: RXF 393 renal
MDA-MB-231 breast = test system: MDA-MB-231 breast
SK-MEL-2 melanoma = test system: SK-MEL-2 melanoma
K-562 leukemia = test system: K-562 leukemia
OVCAR-5 ovarian = test system: OVCAR-5 ovarian
NCI-H522 lung = test system: NCI-H522 lung
A549 NSCLC = test system: A549 NSCLC
NCI-H226 lung = test system: NCI-H226 lung
SF-539 CNS = test system: SF-539 CNS
SW-620 colon = test system: SW-620 colon
CAKI-1 renal = test system: CAKI-1 renal
HOP-92 NSCLC = test system: HOP-92 NSCLC
LOX IMVI melanoma = test system: LOX IMVI melanoma
RPMI-8226 leukemia = test system: RPMI-8226 leukemia
HCT-116 colon = test system: HCT-116 colon

## COc1cccc(/C=N/Nc2ncnc3c2cnn3-c2cccc(OC)c2)c1
IGROV1 ovarian
  GI50: > 25 µM
  TGI: > 25 µM
MCF7 breast
  GI50: > 25 µM
  TGI: > 25 µM
SNB-19 CNS
  GI50: > 25 µM
  TGI: > 25 µM
MOLT-4 leukemia
  GI50: > 25 µM
  TGI: > 25 µM
MDA-MB-435
  GI50: > 25 µM
  TGI: > 25 µM
NCI-H23 lung
  GI50: > 25 µM
  TGI: > 25 µM
SF-268 CNS
  GI50: > 25 µM
  TGI: > 25 µM
HCC-2998 colon
  GI50: > 25 µM
  TGI: > 25 µM
SK-OV-3 ovarian
  GI50: > 25 µM
  TGI: > 25 µM
HCT-15 colon
  GI50: > 25 µM
  TGI: > 25 µM
786-0 renal
  GI50: > 25 µM
  TGI: > 25 µM
A498 renal
  GI50: > 25 µM
  TGI: > 25 µM
EKVX NSCLC
  GI50: > 25 µM
  TGI: > 25 µM
PC-3 prostate
  GI50: > 25 µM
  TGI: > 25 µM
HL-60(TB) leukemia
  GI50: > 25 µM
  TGI: > 25 µM
T-47D breast
  GI50: > 25 µM
  TGI: > 25 µM
ACHN renal
  GI50: > 25 µM
  TGI: > 25 µM
SK-MEL-5 melanoma
  GI50: > 25 µM
  TGI: > 25 µM
TK-10 renal
  GI50: > 25 µM
  TGI: > 25 µM
CCRF-CEM leukemia
  GI50: > 25 µM
  TGI: > 25 µM
HS 578T breast
  GI50: > 10.6 µM
  TGI: > 25 µM
MALME-3M melanoma
  GI50: > 25 µM
  TGI: > 25 µM
NCI/ADR-RES ovarian
  GI50: > 25 µM
  TGI: > 25 µM
KM12 colon
  GI50: > 25 µM
  TGI: > 25 µM
U251 CNS
  GI50: > 25 µM
  TGI: > 25 µM
OVCAR-3 ovarian
  GI50: > 25 µM
  TGI: > 25 µM
SN12C renal
  GI50: > 25 µM
  TGI: > 25 µM
COLO 205 colon
  GI50: > 25 µM
  TGI: > 25 µM
OVCAR-8 ovarian
  GI50: > 25 µM
  TGI: > 25 µM
DU-145 prostate
  GI50: > 25 µM
  TGI: > 25 µM
HOP-62 NSCLC
  GI50: > 25 µM
  TGI: > 25 µM
UO-31 renal
  GI50: > 25 µM
  TGI: > 25 µM
SF-295 CNS
  GI50: > 25 µM
  TGI: > 25 µM
OVCAR-4 ovarian
  GI50: > 25 µM
  TGI: > 25 µM
M14 melanoma
  GI50: > 25 µM
  TGI: > 25 µM
SK-MEL-28 melanoma
  GI50: > 25 µM
  TGI: > 25 µM
BT-549 breast
  GI50: > 25 µM
  TGI: > 25 µM
HT29 colon
  GI50: > 25 µM
  TGI: > 25 µM
UACC-257 melanoma
  GI50: > 25 µM
  TGI: > 25 µM
SR leukemia
  GI50: > 25 µM
  TGI: > 25 µM
UACC-62 melanoma
  GI50: > 25 µM
  TGI: > 25 µM
NCI-H460 lung
  GI50: > 25 µM
  TGI: > 25 µM
SNB-75 CNS
  GI50: > 25 µM
  TGI: > 25 µM
RXF 393 renal
  GI50: > 25 µM
  TGI: > 25 µM
MDA-MB-231 breast
  GI50: > 25 µM
  TGI: > 25 µM
SK-MEL-2 melanoma
  GI50: > 25 µM
  TGI: > 25 µM
K-562 leukemia
  GI50: > 25 µM
  TGI: > 25 µM
OVCAR-5 ovarian
  GI50: > 25 µM
  TGI: > 25 µM
NCI-H522 lung
  GI50: > 25 µM
  TGI: > 25 µM
A549 NSCLC
  GI50: > 25 µM
  TGI: > 25 µM
NCI-H226 lung
  GI50: > 25 µM
  TGI: > 25 µM
SF-539 CNS
  GI50: > 25 µM
  TGI: > 25 µM
SW-620 colon
  GI50: > 25 µM
  TGI: > 25 µM
CAKI-1 renal
  GI50: > 25 µM
  TGI: > 25 µM
HOP-92 NSCLC
  GI50: > 25 µM
  TGI: > 25 µM
LOX IMVI melanoma
  GI50: > 25 µM
  TGI: > 25 µM
RPMI-8226 leukemia
  GI50: > 25 µM
  TGI: > 25 µM
HCT-116 colon
  GI50: > 25 µM
  TGI: > 25 µM
